Numbering of substitutions follows the chain as printed. Like-named read-outs stand apart in the source and are kept apart here.
Key:
[1] = molecular target: T1, H156Y-1 mutant of 3β-HSD1 (Homo sapiens, UniProt P14060, H157Y); experiment: Michaelis-Menten kinetics of 3β-HSD substrate; type: biochemical; details: Table 4; substrate DHEA 3-100 μM, NAD+ 200 μM, 27° C, pH 7.4
T1 sequence (P14060 1-373 H157Y): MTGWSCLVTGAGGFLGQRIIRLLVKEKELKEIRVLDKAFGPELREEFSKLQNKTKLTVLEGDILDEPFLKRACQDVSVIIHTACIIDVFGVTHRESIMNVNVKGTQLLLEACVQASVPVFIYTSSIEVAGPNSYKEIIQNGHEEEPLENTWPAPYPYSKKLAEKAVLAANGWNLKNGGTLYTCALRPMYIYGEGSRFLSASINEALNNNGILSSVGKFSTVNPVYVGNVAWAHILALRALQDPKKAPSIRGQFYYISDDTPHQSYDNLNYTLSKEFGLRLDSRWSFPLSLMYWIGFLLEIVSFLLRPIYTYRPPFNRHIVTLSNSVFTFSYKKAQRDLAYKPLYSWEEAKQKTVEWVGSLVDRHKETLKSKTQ

human 3β-HSD2 [2] = molecular target: T2, human 3β-HSD2 (Homo sapiens, UniProt P26439); experiment: Michaelis-Menten kinetics of 3β-HSD substrate; type: biochemical; details: pH 7.4
T2 sequence (P26439 1-372): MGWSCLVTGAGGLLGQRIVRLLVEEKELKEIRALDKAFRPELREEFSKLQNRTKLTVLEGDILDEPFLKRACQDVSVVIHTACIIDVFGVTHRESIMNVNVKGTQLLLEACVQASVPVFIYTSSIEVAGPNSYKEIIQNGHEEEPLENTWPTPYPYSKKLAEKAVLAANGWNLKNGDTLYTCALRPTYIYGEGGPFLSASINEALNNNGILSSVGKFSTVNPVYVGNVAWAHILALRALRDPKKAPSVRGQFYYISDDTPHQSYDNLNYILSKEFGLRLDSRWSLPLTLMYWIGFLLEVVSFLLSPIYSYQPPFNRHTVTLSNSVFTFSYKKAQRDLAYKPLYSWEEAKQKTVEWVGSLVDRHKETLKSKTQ

human 3β-HSD1 [3] = molecular target: T3, human 3β-HSD1 (Homo sapiens, UniProt P14060); experiment: Michaelis-Menten kinetics of 3β-HSD substrate; type: biochemical; details: pH 7.4
[4] = molecular target: T4, R195P-1 mutant of 3β-HSD1 (Homo sapiens, UniProt P14060, R196P); experiment: Michaelis-Menten kinetics of 3β-HSD substrate; type: biochemical; details: Table 2, substrate DHEA 1–100 μM, NAD+ 0.2 mM, pH 7.4
T4 sequence (P14060 1-373 R196P): T1 sequence (P14060 1-373 H157Y) with Y157H, R196P

[5] = molecular target: T5, P195R-2 mutant of 3β-HSD2 (Homo sapiens, UniProt P26439, P195R); experiment: Michaelis-Menten kinetics of 3β-HSD substrate; type: biochemical; details: Table 2, substrate DHEA 1–100 μM, NAD+ 0.2 mM, pH 7.4
T5 sequence (P26439 1-372 P195R): T2 sequence (P26439 1-372) with P195R

[6] = tested on: MCF-7 Tet-off 3β-HSD1 aromatase cells; details: cited from earlier work
[7] = molecular target: T1, H156Y-1 mutant of 3β-HSD1; experiment: Inhibition of 3β-HSD activity of purified enzyme, Dixon analysis; type: biochemical
human 3β-HSD2 [8] = molecular target: T2, human 3β-HSD2; experiment: as above; type: biochemical
human 3β-HSD1 [9] = molecular target: T3, human 3β-HSD1; experiment: as above; type: biochemical
[10] = tested on: other enzymes in steroidogenesis (e.g., 17β-HSD); details: cited from earlier work
[11] = tested on: MCF-7 Tet-off 3β-HSD2 aromatase cells; details: read-out: IC50, proliferation; DHEA-stimulated growth; cited from earlier work
[12] = tested on: MCF-7 Tet-off 3β-HSD1 aromatase cells; details: read-out: EC50, stimulation of growth; cited from earlier work
[13] = tested on: MCF-7 Tet-off 3β-HSD2 aromatase cells; details: read-out: EC50, stimulation of growth; cited from earlier work
MCF-7 cells = experiment: Proliferation in the absence of DHEA substrate; type: cell-based, human
[14] = tested on: MCF-7 Tet-off 3β-HSD2 aromatase cells; experiment: Inhibition of DHEA-stimulated proliferation; type: cell-based, human; details: for IC50: Homo sapiens, MCF7, 240 h, read-out: IC50, proliferation; for inhibition of growth in the presence of doxycycline: doxycycline 10 ng/ml, DHEA 5.0 nM
[15] = tested on: MCF-7 Tet-off 3β-HSD1 aromatase cells; experiment: Inhibition of DHEA-stimulated proliferation; details: for inhibition of growth in the presence of doxycycline: doxycycline 10 ng/ml, DHEA 5.0 nM
[16] = molecular target: T4, R195P-1 mutant of 3β-HSD1; experiment: Inhibition of 3β-HSD activity of purified enzyme, Dixon analysis; type: biochemical
[17] = Table 2, substrate DHEA 1–100 μM, NAD+ 0.2 mM
[18] = Table 4, substrate DHEA 3-100 μM, NAD+ 200 μM, 27° C
[19] = ratio of proliferation IC50 values

T3 sequence (P14060 whole entry): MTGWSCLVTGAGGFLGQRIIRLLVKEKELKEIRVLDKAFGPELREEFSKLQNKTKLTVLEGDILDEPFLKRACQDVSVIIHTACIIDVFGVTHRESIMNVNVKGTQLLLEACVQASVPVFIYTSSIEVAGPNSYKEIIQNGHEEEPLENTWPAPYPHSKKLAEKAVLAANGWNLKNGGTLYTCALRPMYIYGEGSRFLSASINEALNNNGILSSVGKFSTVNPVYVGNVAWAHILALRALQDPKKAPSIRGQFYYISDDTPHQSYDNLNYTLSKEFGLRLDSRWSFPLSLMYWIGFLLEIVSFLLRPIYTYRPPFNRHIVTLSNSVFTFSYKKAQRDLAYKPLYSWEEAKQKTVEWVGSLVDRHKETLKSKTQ

Question: With C[C@]12CC[C@H](O)CC1=CC[C@@H]1[C@@H]2CC[C@]2(C)C(=O)CC[C@@H]12 [DHEA, dehydroepiandrosterone] as the molecule, how does the 3β-HSD kcat [1] read?
Answer: 7.1 min⁻¹

Question: And the 3β-HSD kcat (human 3β-HSD2 [2]; [17])?
Answer: 8.7 min⁻¹

Question: What about the 3β-HSD kcat (human 3β-HSD2 [2]; [18]) of the same molecule?
Answer: 7.1 min⁻¹

Question: And the 3β-HSD kcat (human 3β-HSD1 [3]; [17])?
Answer: 3.3 min⁻¹

Question: And the 3β-HSD kcat (human 3β-HSD1 [3]; [18])?
Answer: 3.3 min⁻¹

Question: And the 3β-HSD kcat [4]?
Answer: 7.7 min⁻¹

Question: What about the Km ([4]; read-out: 3β-HSD Km) of the same molecule?
Answer: 10.7 µM

Question: What about the 3β-HSD kcat [5] of the same molecule?
Answer: 5.6 min⁻¹

Question: What about the Km ([5]; read-out: 3β-HSD Km) of the same molecule?
Answer: 7.7 µM

Question: With C[C@]1(O)CC[C@H]2[C@@H]3CC[C@@]45O[C@]4(C)C(O)=C(C#N)C[C@]5(C)[C@H]3CC[C@@]21C [epostane] as the molecule, how does the “fold higher affinity vs MCF7 Tet-off 3β-HSD2 aromatase cells” value [6, 19] read?
Answer: 12 fold

Question: What about the IC50 ([6]; read-out: IC50, proliferation, DHEA-stimulated growth) of the same molecule?
Answer: 200 nM

Question: What about the Ki [7] of the same molecule?
Answer: 1180 nM

Question: And the Ki (human 3β-HSD2 [8])?
Answer: 980 nM

Question: What about the Ki (human 3β-HSD1 [9]) of the same molecule?
Answer: 70 nM

Question: What about the “effect on other enzymes in steroidogenesis” value [10] of the same molecule?
Answer: no effect

Question: And the IC50 [11]?
Answer: 2400 nM

Question: What does the source list for C[C@]12CC[C@@H]3c4ccc(O)cc4CC[C@H]3[C@@H]1CC[C@@H]2O [estradiol]?
Answer: EC50 [12]: 0.24 nM; EC50 [13]: 0.32 nM

Question: For C[C@]12CC[C@@H]3c4ccc(O)cc4CC[C@H]3[C@@H]1CCC2=O [estrone], which EC50 [12] is on record?
Answer: 0.39 nM

Question: And the EC50 [13]?
Answer: 0.34 nM

Question: Which “stimulation of proliferation / ER-agonist activity” value (MCF-7 cells) does the source give for N#Cc1ccc(C(c2ccc(C#N)cc2)n2cncn2)cc1 [letrozole] here?
Answer: Neither trilostane nor letrozole stimulated the proliferation

Question: What about the IC50 [14] of the same molecule?
Answer: 0.9 nM

Question: And the “inhibition of growth in the presence of doxycycline” value [14]?
Answer: little change in rate

Question: What about the “inhibition of growth in the presence of doxycycline” value [15] of the same molecule?
Answer: little change in rate

Question: Which results are given for C[C@]12CC[C@H]3[C@@H](CC[C@@]45O[C@@H]4C(O)=C(C#N)C[C@]35C)[C@@H]1CC[C@@H]2O [trilostane, 2α-cyano-4α ,5α-epoxy-17β-ol-androstane-3-one]?
Answer: stimulation of proliferation / ER-agonist activity (MCF-7 cells): Neither trilostane nor letrozole stimulated the proliferation; Ki [16]: 2560 ± 220 nM; mode of inhibition ([16]; Dixon analysis): noncompetitive; mode of inhibition (human 3β-HSD2 [8]; Dixon analysis): noncompetitive; fold lower Ki for 3β-HSD1 compared to 3β-HSD2 (human 3β-HSD1 [9]; competitive 3β-HSD1 vs noncompetitive 3β-HSD2): 16 fold; IC50 [14]: 4900 nM; inhibition of growth in the presence of doxycycline [14]: greatly attenuated; IC50 ([15]; Homo sapiens, MCF7, 240 h, read-out: IC50, proliferation): 300 nM; inhibition of growth in the presence of doxycycline [15]: greatly attenuated; fold higher affinity vs MCF7 Tet-off 3β-HSD2 aromatase cells [15, 19]: 16 fold; effect on other enzymes in steroidogenesis [10]: no effect

Source: paper PMC2999670 (The Journal of steroid biochemistry and molecular biology, 2010)
